pIC50: −log10 of the molar value.
Assay: TP_TRANSPORTER: drug resistance (vincristine) in AML-2/D100 cells

Row | Compound | pIC50
1 | COc1cc(-c2oc3cc(O)cc(O)c3c(=O)c2O)cc(OC)c1OC | 5.49
2 | COc1cc(OC)c2c(=O)cc(-c3cc(OC)c(OC)c(OC)c3)oc2c1 | 6.40
3 | COc1cc(-c2cc(=O)c3c(OC)c(OC)c(OC)cc3o2)cc(OC)c1OC | 6.05
4 | COc1ccc(-c2cc(=O)c3ccccc3o2)cc1OC | 5.92
5 | COc1ccc2c(=O)cc(-c3ccc(OC)c(OC)c3)oc2c1 | 5.92
6 | COc1ccc2oc(-c3ccc(OC)c(OC)c3)c(OC)c(=O)c2c1 | 5.72
7 | COc1ccc(-c2oc3cc(O)ccc3c(=O)c2O)cc1OC | 5.20
8 | O=c1cc(-c2ccc(O)c(O)c2)oc2cc(O)cc(O)c12 [2-(3,4-dihydroxyphenyl)-5,7-dihydroxy-4H-chromen-4-one] | 4.71
9 | COc1ccc(-c2cc(=O)c3c(OC)c(OC)c(OC)cc3o2)cc1OC [2-(3,4-dimethoxyphenyl)-5,6,7-trimethoxy-4H-chromen-4-one] | 5.49
10 | COc1ccc(-c2cc(=O)c3c(OC)cc(OC)cc3o2)cc1 [TRIMETHYLAPIGENIN] | 5.85

Reference: BindingDB's records for doi:10.1016/j.bbrc.2004.06.020 (Chosun University, 2004)
